Source: patent US20140100290A1, “Method of treating a prostate condition” (priority 2012, published 2014)
Read-outs that look alike come from different tables or passages of the source.

Experiments:
[1] = tested on: LNCaP cells; test: XTT cell proliferation (cell viability) assay in LNCaP cells; assay type: cell-based; settings: Homo sapiens, mean±S.E.M., read-out: IC50 (anti-proliferative activity, XTT)
Protocol: (§1) Human metastatic prostate cancer cells, LNCaP, were obtained from ATCC (Manassas, Va., USA). Cells were grown in RPMI-1640 medium supplemented with 2mM glutamine, 10% FBS, 100 U/mL penicillin, and 100 μg/mL streptomycin. LNCaP cells were maintained in a humidified atmosphere of 5% CO2 at 37° C. in T-75 flasks and were subcultured when confluent. Experiments were conducted using cells with passage numbers ranging from 5-20.
The anti-proliferative effect of carvacrol was assessed in human metastatic prostate cancer cells, LNCaP, using the XTT cell proliferation assay. This assay is a colorimetric assay that detects cellular metabolic activities. In this assay, the second generation tetrazolium dye XTT (2,3-bis (2-methoxy-4-nitiro-5-sulfophenyl)-5-[(phenylamino)-carbonyl]-2H tetrazolium hydroxide), is reduced to a soluble, brightly orange colored formazan derivative. To improve the sensitivity of XTT assay, PMS (N-methyl dibenzopyrazine methyl sulfate), an intermediate electron carrier is used. This color change is accomplished by breaking apart the positively charged quaternary tetrazole ring. Mitochondrial oxidoreductases present in viable cells are thought to contribute substantially to the XTT response with their reductants being transferred to the plasma membrane.
LNCaP cells at the density of 10,000 cells/well were seeded into flat-bottom, 96-well microtiter plates (100 μL/well) and allowed to attach and grow for 24 hours, the cells were then treated with 0.1 μM, 1 μM, 10 μM, 100 μM, 1000 μM, and 3000 μM of carvacrol for 24, 48, and 96 hours. […] After incubation, an orange colored formazan product was formed and the absorbance was read at 475 nm using BioTek microplate reader. […] Cell viability of the drug-treated cells was calculated as a fraction of solvent control and the anti-proliferative activity of carvacrol was expressed in terms in IC50 valuesIC50 values of carvacrol were calculated using GraphPad Prism 4 (GraphPad Software Inc., Calif., USA), and are expressed as the means of ±S.E.M> of n≧4 experiments, with triplicate determinations in each experiment. […]

[2] = tested on: LNCaP cells; test: Phosphatidylserine externalization by fluorescence microscopy (PSVue 480) in LNCaP cells; assay type: cell-based, Human; settings: 10 μM and 1000 μM, 48 hours, dose-dependent
Protocol: as §1
One of the earliest events to occur in apoptosis or programmed cell death is the externalization of phosphatidylserine (PS), a membrane phospholipid restricted to the inner leaflet of the lipid bilayer. Redistribution of PS from the inner leaflet to the outer leaflet occurs in cells undergoing apoptosis. The PSVue™ 480 reagent kit was used to perform the phosphatidylserine (PS) externalization assay. The principle behind this assay involves a strong binding of PSVue™ 480 (fluorescent probe) to the anionic PS residues exposed on the surface of the apoptotic cells by its Zn (II)-dipicolylamine (Zn-DPA) functionality, making it a useful apoptotic sensor.
To detect PS externalization, LNCaP cells were seeded as 0.5×10^6 cells/well in flat-bottom, 6-well microtiter plates. After 24 hours of incubation at 37° C., cells were treated with 10 μM and 1000 μM of carvacrol for 48 hours. […]

[3] = tested on: LNCaP cells; test: DNA fragmentation assay (Apoptotic DNA-Ladder Kit) in LNCaP cells; assay type: cell-based, Human; settings: 10 μM and 1000 μM, 48 hours
Protocol: as §1
During apoptosis, pro-apoptotic proteins such as apoptosis-inducing factor (AIF), endonuclease G, and caspase-activated DNase (CAD) are released from the mitochondria, which occur after the cell has committed to die. AIF, after translocation to the nucleus, causes DNA fragmentation (˜50-300 kb pieces) and peripheral nuclear chromatin condensation which is referred to as “stage 1” condensation. Endonuclease G also cleaves nuclear chromatin to produce oligonucleosomal DNA fragments following its translocation to the nucleus. Both, AIF and endonuclease G function in caspase-independent manner. CAD subsequently released from mitochondria, after getting cleaved by activated caspase-3, is known to translocate into the nucleus leading to oligonucleosomal cleavage of DNA into 180 by fragments and a more pronounced chromatin condensation referred to as “stage 11” condensation.
This cleaved DNA is easily observed as a “ladder” upon analysis by gel electrophoresis. […]

[4] = tested on: PC-3 cells; test: Morphological analysis of PC-3 cells; assay type: cell-based, Human; settings: 10 μM and 1000 μM, 48 h
Protocol: Cell Line and Culture Conditions • Human metastatic, androgen insensitive prostate cancer cells, PC-3, were obtained from ATCC (Manassas, Va., USA). Cells were grown in F-12K medium supplemented with 2 mM glutamine, 10% FBS, 100 U/mL penicillin, and 100 μg/mL streptomycin. PC-3 cells were maintained in a humidified atmosphere of 5% CO2 at 37° C. in T-75 flasks and were subcultured when confluent.
These typical features of apoptosis were used to evaluate the mechanism of decreased cell proliferation by carvacrol in PC-3 cells.
In order to identify the morphological changes in PC-3 cells after treatment with carvacrol, 2×10^6 cells/well were seeded in flat-bottom, 6-well microtiter plates, allowed to grow for 24 h, then treated with 10 μM and 1000 μM of carvacrol, and incubated further for 48 h at 37° C. After incubation, cells were washed twice with PBS, and microscopic photographs of morphological changes of the cells were captured using a fluorescent microscope, Axiovert 200M (Carl Zeiss MicroImaging Inc, NY, USA). 1.15% EtOH was used as a solvent control.

Compound `Cc1ccc(C(C)C)cc1O` [Carvacrol] has an IC50 ([1]; 24 hours treatment) of 1670 ± 179 µM, an IC50 ([1]; 48 hours treatment) of 269 ± 58 µM and an IC50 ([1]; 96 hours treatment) of 13.7 ± 4.42 µM. For the same compound, the “externalization of phosphatidylserine residues (PSVue 480 positive cells)” value [2] was “showed externalization of phosphatidylserine residues”, the “fragmentation of DNA” value [3] was “Fragmentation of DNA was observed” and the “morphological changes (features of apoptosis)” value [4] was “exhibited typical features of apoptosis like rounding of cells, membrane blebbing, and cell shrinkage”.
